Data taken from US8192962B2, “Processes for detecting toxic substances” (Daikin Industries, Ltd., priority 2001, dated 2012).

System: Genes belonging to other category
Assay: DNA chip mRNA expression in yeast, genes belonging to other category (Table 9)
Assay type: cell-based, Saccharomyces cerevisiae S288C
Protocol: Yeast (Saccharomyces cerevisiae S288C (α SUC2mal mel gap2 CUP1)) were incubated at 25° C. on YPD medium (yeast extract 1%, polypepton 2%, glucose 2%). One of toxic chemical substances was added to the cells at logarithmic growth phase, and the cells were further incubated for two hours. Cells were cultured without any chemical substance in the same condition, and were used as control. Concentrations of the chemical substances were defined to inhibit the growth of the yeast but not lead to death.
After completion of the incubation, the culture was centrifuged to collect the cells. To the cells, sodium acetate buffer (50 mM sodium acetate, 10 mM EDTA, 1% SDS) was added, and the mixture was shaken at 65° C. for five minutes, followed by returning to room temperature, and obtaining the supernatant, of which the procedures were repeated two times. To the supernatant, ½ amount of a solution of phenol/chloroform was added, and the mixture was centrifuged to give a supernatant, which was added with an equal amount of chloroform, and the mixture was centrifuged to give a supernatant. To the supernatant, an equal amount of isopropanol containing 0.3 M sodium acetate was added, and the mixture was allowed to stand at room temperature for 30 minutes, after which the mixture was centrifuged to give a sediment of the whole RNAs. Seventy % ethanol was added to the sediment, and the mixture was again centrifuged to give a sediment, which was then dried and dissolved in water. mRNA was isolated from the whole RNAs as followings. In view of the fact that a poly A chain is attached to the 3′ terminus of mRNA, a polynucleotide having a poly T structure which was immobilized on the surface of latex beads was used to trap the mRNA, and then the mRNA was washed and eluted with spine column (Oligotex-dT30<Super>mRNA Purification Kit, Takara). Reverse transcription of the mRNA was conducted with a reverse transcriptase (Super Script II Reverse Transcriptase; catalogue No. 18064-014, GibcoBRL) using fluorescence-labeled nucleotides to give cDNAs that were introduced with Cy3-dUTP or Cy5-dUTP during the reverse transcription.
The labeled cDNAs were dissolved in TE buffer (10mM Tris-HCl/1 mM EDTA, pH8.0), and the solution was dropped on the DNA chip containing the whole genes of yeast (DNA Chip Research Inc. Japan) so that the cDNAs were hybridized on the DNA chip at 65° C. for over 12 hours. The fluoresces intensity of the DNA chip was read with a scanner, and the ratio relative to the fluorescence intensity resulting from the absence of chemical substance was estimated as the following, which is shown in Tables 1 to 9: […]

Measured: The level of expressed mRNA in the presence of chemical substance/The level of expressed mRNA in the absence of chemical substance

Cl[C@H]1[C@H](Cl)[C@@H](Cl)[C@@H](Cl)[C@H](Cl)[C@H]1Cl [(7), γ-hexachlorocyclohexane]
3.1: yeast gene YBL078C
0.4: yeast gene YJR004C
1.0: yeast gene YCL027W | yeast gene YDR104C | yeast gene YER107C | yeast gene YHR071W | yeast gene YKL041W
2.8: yeast gene YDR259C | yeast gene YDR358W
0.7: yeast gene YDR481C | yeast gene YLR391W | yeast gene YOR181W
0.5: yeast gene YDR432W | yeast gene YEL042W | yeast gene YIL123W | yeast gene YIL140W
1.7: yeast gene YJR086W | yeast gene YOL013C
1.9: yeast gene YAR010C | yeast gene YLR250W | yeast gene YLR362W | yeast gene YOR261C
0.9: yeast gene YDR084C | yeast gene YHR142W | yeast gene YPL089C
1.6: yeast gene YBL041W | yeast gene YDR115W | yeast gene YDR510W | yeast gene YNL006W | yeast gene YOR198C | yeast gene YPR103W | yeast gene YPR108W
0.2: yeast gene YKL096W
0.3: yeast gene YFL022C
1.1: yeast gene YBR214W | yeast gene YDR388W | yeast gene YJL089W | yeast gene YLR356W | yeast gene YMR276W | yeast gene YMR314W | yeast gene YOR124C | yeast gene YOR355W
1.8: yeast gene YEL066W | yeast gene YFL043C | yeast gene YKL013C | yeast gene YMR226C | yeast gene YOR036W | yeast gene YPL109C
1.2: yeast gene YCR088W | yeast gene YMR004W | yeast gene YNL007C | yeast gene YOR157C | yeast gene YPL149W
2.2: yeast gene YGL229C | yeast gene YOL164W
4.1: yeast gene YDR085C
7.0: yeast gene YGR213C
3.9: yeast gene YLR136C
2.6: yeast gene YKL139W
0.8: yeast gene YJL116C | yeast gene YMR094W | yeast gene YMR275C
2.0: yeast gene YDL008W | yeast gene YFL028C | yeast gene YKL039W | yeast gene YOR288C
3.3: yeast gene YLR178C | yeast gene YOR117W
2.9: yeast gene YNL333W
2.1: yeast gene YKL165C | yeast gene YKL193C
8.0: yeast gene YOR383C
1.4: yeast gene YBL005W-A | yeast gene YCR004C | yeast gene YCR071C | yeast gene YDL238C | yeast gene YDR315C | yeast gene YKL008C | yeast gene YNL093W | yeast gene YNR069C | yeast gene YOR132W
1.5: yeast gene YBL043W | yeast gene YCL020W | yeast gene YDR055W | yeast gene YER130C | yeast gene YGR136W | yeast gene YHR004C | yeast gene YHR139C | yeast gene YLR120C | yeast gene YMR104C | yeast gene YNR010W | yeast gene YPL154C
5.7: yeast gene YLR327C
1.3: yeast gene YER039C | yeast gene YGL158W | yeast gene YLR429W | yeast gene YOR185C | yeast gene YOR259C
2.4: yeast gene YGR257C
0.6: yeast gene YGR189C
